Data as given in patent US20080146457A1, “METHOD FOR THE DETERMINATION OF CELL ACTIVATION” (priority 2003, published 2008).

Tests used:
Assay type in all cases: cell-based
JNK1/2 = assay: Level of phosphorylation of JNK1/2 in anisomycin-treated Jurkat cells on multiplex arrays
Protocol: (§1) Hybridization chambers were placed onto diaglass functionalized slides (EAT, Namur, Belgium) spotted with antibodies specific of the protein to be detected, in this case anti-Akt antibodies. The spotting was performed with a split pin or a pin and ring or a plain pin. Each spot contained between 0.5 and 10 nl depending on the type of pin used and its diameter.
(§2) The slides were washed 4×1 min in Washing Buffer (EAT, Namur, Belgium). The slides were then incubated for 1 h with 500 μl of a specific rabbit detection antibody against phospho-Akt diluted 500× in Blocking Buffer (EAT, Namur, Belgium). The slides were washed 4×1 min in Washing Buffer. The slides were then incubated for 45 min at room temperature with a conjugated antibody (anti-rabbit Cy3) diluted 1000× in Blocking Buffer. The slides were washed 4×1 min in Washing Buffer and then rinsed twice in water. The slides were scanned in a laser confocal scanner “ScanArray” (Packard, USA) at a resolution of 10 μm.
(§3) The assay was performed as described in Example 1, but two identical arrays were present on each slide. The capture antibodies spotted on the left and right arrays were the same, but the detection antibodies were either specific to the phospho-Akt (right arrays) or to the total Akt (left arrays). Four different mixes were prepared as follows: (1) 40 ng of purified Akt and 40 ng of purified phospho Akt; (2) 40 ng of purified Akt and 20 ng of purified phospho Akt; (3) 40 ng of purified Akt and 10 ng of purified phospho Akt; (4) 40 ng of purified Akt and 5 ng of purified phospho Akt. In this experiment, four slides were used. […] The intensity of the spots on each array was then quantified and the results clearly show decreasing signal intensities correlating with decreasing concentrations of phospho-Akt on the right arrays. The calculated ratios of phospho vs. total Akt directly relates to the known concentration used in the four different mixes.
(§4) Each slide contained 2 identical arrays. The two arrays were incubated with the same samples possibly containing the proteins to be detected. The left array was then incubated with a mixture of 7 detection antibodies directed against the 7 proteins to be detected. The right array was incubated with a mixture of 7 detection antibodies directed against the phospho-specific form of the 7 proteins to be detected. […] The samples consisted of each of the 7 proteins to be detected, in their non-phosphorylated or phosphorylated form, or combinations thereof.
(§5) The experiment was performed on slides containing a double array as presented in Example 4. […] The protein chips allowed to simultaneously quantify the level of phosphorylation of p38 and JNK1/2 due to the effect of anisomycin on cells.

p38 = assay: Level of phosphorylation of p38 in anisomycin-treated Jurkat cells on multiplex arrays
Protocol: as §1, §2, §3, §4, §5

Erk1/2 = assay: Phosphorylation status of Erk1/2 in PMA-treated Jurkat cells on double antibody array; settings: PMA 0.1 to 1000 ng/ml, 10 minutes
[1] = 8 different concentrations of anisomycin

Structure (SMILES)	level of phospho form of JNK1/2 (JNK1/2; [1])	level of total JNK1/2 (JNK1/2; [1])	ratio of Phospho vs. total forms of JNK1/2 (JNK1/2; anisomycin 0.01 μM)	ratio of Phospho vs. total forms of JNK1/2 (JNK1/2; anisomycin 1 μM)	level of phospho form of p38 (p38; [1])	level of total p38 (p38; [1])	ratio of Phospho vs. total forms of p38 (p38; anisomycin 1 μM)	ratio of Phospho vs. total forms of p38 (p38; anisomycin 100 μM)	amount of Erk1/2 (total protein) (Erk1/2)	levels of phosphorylation at threonine 185 and tyrosine 187 of Erk1/2 (Erk1/2)
COc1ccc(C[C@H]2NC[C@H](O)[C@H]2OC(C)=O)cc1 [anisomycin]	increase with the anisomycin concentration	remain constant	0.33	0.88	increase with the anisomycin concentration	remain constant	0.33	1.0	–	–
CCCCCCCCCCCCCC(=O)O[C@@H]1[C@@H](C)[C@@]2(O)[C@@H](C=C(CO)C[C@]3(O)C(=O)C(C)=C[C@@H]23)[C@@H]2C(C)(C)[C@]12OC(C)=O [PMA, phorbol 12-myristate 13-acetate]	–	–	–	–	–	–	–	–	remains constant	increase with the amount of PMA
